The supplement of paper PMC10599287

Assays:
[1] = compound: CCNC(=O)C#Cc1ccc2c(C(=Nc3ccc(CN(C)C)cc3)c3ccccc3)c(O)[nH]c2c1; assay: absolute IC70 (antiproliferative, propidium iodide); higher = less potent; details: exposure time: 4 days
Procedure: (§1)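 Modified propidium iodide survival/proliferation assay in 294 human tumor cell lines (2D monolayer for solid tumors, suspension for hematologic lines) after 4 days of continuous exposure to 10 concentrations in half-log steps from 0.001 to 30 µM. Absolute IC70 was fitted by four-parameter nonlinear regression of T/C × 100 (%) values; 30 µM is the top dose.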

[2] = compound: O=C(NOCCO)c1ccc2cncn2c1Nc1ccc(I)cc1F [GDC-0623]; assay: as above; details: exposure time: 4 days
Procedure: as §1

Test System | absolute IC70 [1] [nM] | absolute IC70 [2] [nM]
PXF_1752 | 1860 | > 30000
KM20L2 | 186 | 51.8
MEXF_520 | 99 | 5400
MEXF_394 | 42 | 4
NCI-H1975 | 409 | > 30000
T47D | 6840 | > 30000
BXF_1036 | 115 | 8
LXFA_289 | 1790 | > 30000
PAXF_1998 | 4620 | > 30000
HCC2998 | 896 | 257
BT-549 | 1780 | > 30000
VCAP | 5020 | > 30000
KYSE-70 | 1040 | > 30000
SK-OV-3 | 13400 | > 30000
NCI-H441 | 1340 | > 30000
DU-145 | 569 | 1240
SK-GT-2 | 2800 | > 30000
SW620 | 69 | 10
HT-1080 | 710 | 279
GXF_1172 | 510 | 1270
A172 | 252 | 1590
PAXF_1657 | 564 | 260
HT-115 | 14.4 | 57.6
LIM2551 | 7.49 | 3.68

Test System | absolute IC70 [1] [nM] | absolute IC70 [2] [nM]
MAXF_401 | 28 | 730
SW1463 | 323 | 14.3
RH-30 | 794 | 24600
FU97 | 6600 | > 30000
MOLT-4 | 4 | > 30000
MEXF_276 | 38 | 8
SNU-878 | 9320 | 18800
LXFA_1647 | 248 | 221
MOLM-6 | 9 | 41
LOVO | 3680 | > 30000
CXF_1103 | 11 | 427
K-562 | 2820 | > 30000
HPAC | 120 | > 30000
MM.1R | 23 | > 30000
UO-31 | 527 | 1620
SXFO_678 | 87 | > 30000
A498 | 4340 | > 30000
U-2-OS | 162 | 530
CAKI-1 | 2360 | > 30000
UOC-M1 | 12 | > 30000
ACHN | 765 | > 30000
SW403 | 841 | 7.71
SNU-601 | 3000 | > 30000
NCI-H1299 | 1180 | > 30000

Test System | absolute IC70 [1] [nM] | absolute IC70 [2] [nM]
BXF_5637 | 20 | 359
CXF_280 | 1550 | > 30000
MOLP-2 | 3650 | > 30000
RXF_393 | 869 | 15100
KM12 | 386 | 15100
MOLM-13 | 8 | 448
MDA-MB-231 | 120 | 78
HCC1937 | 475 | > 30000
LXFA_737 | 225 | > 30000
COLO-678 | 3000 | > 30000
RXF_1183 | 949 | 102
OCI-AML3 | 6 | < 1
LIXFC_575 | 654 | 3010
PC-3M | 161 | > 30000
SU-DHL-4 | 220 | > 30000
MDA-MB-453 | 2480 | > 30000
NCI-H82 | 2330 | > 30000
L-363 | 692 | > 30000
NCI-H460 | 11 | > 30000
H-MESO-1 | 5670 | > 30000
LXFA_629 | 750 | > 30000
LXFE_66 | 3910 | > 30000
LS174T | 40.4 | 72.3
COLO-320 | 2110 | > 30000

Test System | absolute IC70 [1] [nM] | absolute IC70 [2] [nM]
SW480 | 101 | 23.9
SCLC-21H | 31 | > 30000
RD-ES | 77 | > 30000
OCUM-1 | 25 | 11
SXFS_1301 | 3850 | > 30000
A-253 | > 30000 | > 30000
MEXF_622 | 227 | 40
PXF_1118 | 1550 | > 30000
MM.1S | 9 | > 30000
RH-41 | 606 | > 30000
EFO-21 | 2140 | > 30000
Caco-2 | 4760 | > 30000
NCI-H69 | 1340 | > 30000
OVXF_899 | 457 | 14700
LXFA_983 | 202 | 18500
LXFA_526 | 739 | 1320
NCI-H929 | 43 | 10
HUP-T3 | 291 | 44
RAMOS | 507 | > 30000
MEXF_1539 | 39 | 3
RXF_486 | 816 | 239
Hep-G2 | 55 | 16500
